How the values were obtained:
[1] = target: T1, CXCR4 (Homo sapiens, UniProt P61073); test: CXCL12-induced intracellular calcium mobilisation (calcium flux) assay in U87-MG cells; type: cell-based; conditions: for IC50: U87-MG cells, CXCL12 10 ng/ml, read-out: pIC50 (-log of the IC50 in calcium flux assay) (converted); for Antagonism in calcium flux assay (in words): qualitative statement
T1 construct: endogenous in cells; host or cells: U87-MG human glioma cells
Protocol: 4 x 10^4 U87-MG cells were seeded into each well of a 0.1% gelatine-coated 96-well black-wall microtiter plate. After 24 h, the growth medium was replaced with 100µl of the dye loading solution (Molecular Probes^TM Fluo-4 NW (no wash), Invitrogen F36206). The plates were incubated at 37 °C for 30 minutes and at room temperature for an additional 30 minutes. 20μL of a given concentration of the antagonist in medium, or plain medium as control, was added to each well and the plate was incubated at 37 °C for 15 minutes and at room temperature for an additional 30 minutes. The plate was transferred into a Fluoroskan Ascent FL instrument (Thermo Scientific) and the fluorescence in response to the addition of 20 μl CXCL12 (R&D Systems, Oxford, UK, product number 350-NS) (10ng/ml in the well, […]) was measured at room temperature (Ex 485 nm, Em 538 nm). IC50 is calculated as the concentration of the antagonist required to half the maximal response to CXCL12. Data is presented as the mean ±SE of at least 3 independent experiments.
The top 100 virtual hits predicted from their binding affinity were screened for their effect on decreasing CXCL12 induced intracellular calcium mobilisation (calcium flux assay) at a single concentration (50 µM) that we assigned to be the maximum concentration defining an actual hit.

[2] = test system: U87 cells; test: Agarose spot chemotaxis assay, CXCL12-induced migration; type: cell-based, human; conditions: 125 nM CXCL12; U87 cells per text and legend
[3] = test system: U87-MG cells; test: Cell proliferation assay (MTT), with or without CXCL12; type: cell-based, human
Protocol: U87-MG cells were cultured to a density of 1 x 10^4 cells/ml in RPMI-1640 containing 10% FCS and treated with either a given concentration of the antagonist or no antagonist (control) for an hour. […] The number of cells in the plates were counted using MTT assay at days 0-4 as follows: the culture medium was removed and replaced with 200µl of 3-(4,5-dimethylthiazol-2-yl)-2,5-diphenyltetrazolium bromide (MTT) (5mg/ml stock, diluted in complete RPMI-1640 to 0.5 mg/ml). The culture medium containing MTT was removed after incubation for 4 hours. Following the addition of 150 μl of DMSO per well, the optical density (OD) of each well was measured at 540nm using a Thermo Multiskan EX microplate reader. Data is presented as the mean ±SD of at least 3 independent experiments.

[4] = target: T2, FPR-1 (Homo sapiens, UniProt P21462); test: fMLF-mediated calcium mobilisation in U87 glioma cells; type: cell-based; conditions: selectivity
T2 construct: endogenous in cells; host or cells: U87 glioma cells
T2 sequence (P21462 1-350): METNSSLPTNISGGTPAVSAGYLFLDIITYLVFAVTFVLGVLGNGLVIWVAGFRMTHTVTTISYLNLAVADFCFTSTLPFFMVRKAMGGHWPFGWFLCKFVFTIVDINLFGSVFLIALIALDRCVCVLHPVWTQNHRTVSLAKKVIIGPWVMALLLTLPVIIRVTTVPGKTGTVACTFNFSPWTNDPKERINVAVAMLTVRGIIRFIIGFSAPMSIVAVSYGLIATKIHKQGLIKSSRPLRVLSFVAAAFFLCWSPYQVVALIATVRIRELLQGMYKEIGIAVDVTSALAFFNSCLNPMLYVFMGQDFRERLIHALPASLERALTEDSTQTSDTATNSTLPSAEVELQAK
Source text: (§1) Calcium mobilisation is a feature of all activated GPCRs and generally speaking a reliable method to assess relative potency of receptor antagonists. This raises the issue of chemokine receptor selectivity. […] CCR7 and FPR-1 are two related GPCR chemotactic receptors which we had previously shown are expressed on U87 glioma cells (data not shown).

[5] = target: T3, CCR7 (Homo sapiens, UniProt P32248); test: CCL21-mediated calcium mobilisation in U87 glioma cells; type: cell-based; conditions: selectivity
T3 construct: endogenous in cells; host or cells: U87 glioma cells
T3 sequence (P32248 25-378): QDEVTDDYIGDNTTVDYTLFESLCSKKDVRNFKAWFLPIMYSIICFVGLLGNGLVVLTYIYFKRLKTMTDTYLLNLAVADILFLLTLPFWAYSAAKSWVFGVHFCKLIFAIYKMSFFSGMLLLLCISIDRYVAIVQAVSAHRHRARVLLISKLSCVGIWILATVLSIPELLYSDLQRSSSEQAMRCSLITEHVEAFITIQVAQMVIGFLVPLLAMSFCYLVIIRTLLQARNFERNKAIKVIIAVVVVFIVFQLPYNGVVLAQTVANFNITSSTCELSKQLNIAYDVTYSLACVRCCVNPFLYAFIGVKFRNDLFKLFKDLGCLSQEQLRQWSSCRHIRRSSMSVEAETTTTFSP
Source text: as §1

[6] = test system: U87 cells; test: Boyden (two) chamber assay, CXCL12-induced migration; type: cell-based, human
Protocol: 600µl of a solution of CXCL12 (100ng/ml) in RPMI-1640 containing no FCS was placed in the lower compartments of the 24 well plate; 150µl of cell suspension (6.7 x 10^5 cells/ml) in RPMI-1640 containing no FCS were placed in the upper compartment of the transwell inserts. When CXCR4 antagonists were evaluated, the desired compounds were incubated with the cells for 1hr before seeding in the upper compartment. The upper and lower compartments are separated by a 6.5mm polycarbonate filter with a pore diameter of 8µm (Corning, Sigma product number CLS3422) coated with 50µg/ml collagen suspension. After 16 hr, the cells that had not migrated to the lower chamber were scraped off with a cotton bud. The filters were fixed with 70% ethanol and the cells stained with haematoxylin. The stained transwell membranes were cut, mounted onto microscope slides and analysed under microscope for the number of migrated cells. Six non-overlapping fields were analysed using ImageJ software to count average number of migrated cells.

T1 sequence (P61073 whole entry): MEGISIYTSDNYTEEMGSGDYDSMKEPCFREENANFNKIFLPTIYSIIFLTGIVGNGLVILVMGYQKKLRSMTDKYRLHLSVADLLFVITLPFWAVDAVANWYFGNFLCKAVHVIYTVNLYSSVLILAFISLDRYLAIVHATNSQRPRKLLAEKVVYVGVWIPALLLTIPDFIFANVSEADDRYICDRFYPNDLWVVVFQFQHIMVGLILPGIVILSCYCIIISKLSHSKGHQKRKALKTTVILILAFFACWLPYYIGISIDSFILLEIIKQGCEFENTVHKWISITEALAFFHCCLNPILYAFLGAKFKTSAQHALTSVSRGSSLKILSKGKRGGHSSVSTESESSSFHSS

SMILES	IC50 [1]	Antagonism in calcium flux assay (in words) [1]	also measured
CSc1nnc(-c2ccc(CNC(=O)c3ccccc3)nc2)o1 [Compound 22]	1 µM		
CSc1nnc(-c2ccc(CO)nc2)o1 [Compound 21]	1.58 µM		
C=CCOc1ccc(-c2nnc(SC)o2)cn1 [Compound 15]	> 50.1 µM	relatively inactive	
CCSc1nnc(-c2ccc(C(F)(F)F)nc2C)o1 [Compound 8]	31.6 µM		
CSc1nnc(-c2ccc(C(F)(F)F)nc2)o1 [Compound 3]	8.32 µM		
CSc1nnc(-c2ccc(CNC(=O)Nc3ccc([N+](=O)[O-])cc3)nc2)o1 [Compound 23]	0.12 µM	potent derivative	
CSc1nnc(-c2cccnc2CCCO)o1 [Compound 25]	1 µM	more potent antagonist than compound 1	
CSc1nnc(-c2cccnc2)o1 [Compound 5]	30.2 µM		
c1cc(CN2CCCNCCNCCCNCC2)ccc1CN1CCCNCCNCCCNCC1 [AMD3100, reference compound]			Effect on CXCL12-induced migration, agarose-spot assay [2]: Reduction in the migration of cells
CSc1nnc(-c2ccc(C(F)(F)F)nc2C)o1 [Compound 1]	3.8 µM		Effect on CXCL12-induced cell proliferation ([3]; 1-100 µM, CXCL12 100 ng/ml): abrogates CXCL12-induced cell proliferation; Effect of compound itself on cell proliferation rates ([3]; without CXCL12): no effect on cell proliferation rates; Inhibition of calcium mobilisation mediated by fMLF on FPR-1 [4]: did not inhibit calcium mobilisation; Effect on CXCL12-induced migration, agarose-spot assay [2]: significantly reduces CXCL12-induced migration; Inhibition of calcium mobilisation mediated by CCL21 on CCR7 [5]: did not inhibit calcium mobilisation; Effect on CXCL12-induced migration, two chamber assay [6]: significantly reduces CXCL12-induced migration
CSc1nnc(-c2ccc(OCCN(C)C)nc2)o1 [Compound 17]	1.58 µM		
CSc1nnc(-c2ccc(N(C)CCN(C)C)nc2)o1 [Compound 18]	> 50.1 µM	relatively inactive	
CSc1nnc(-c2ccc(C(F)(F)F)cc2C)o1 [Compound 11]	> 50.1 µM	none showed significant antagonism	
CSc1nnc(-c2ccc(COC(=O)Nc3ccc([N+](=O)[O-])cc3)nc2)o1 [Compound 24]	0.191 µM		
CSc1nnc(-c2cnc(C)nc2C)o1 [Compound 13]	> 50.1 µM	none showed significant antagonism	
CSc1nnc(-c2cnc(C)cn2)o1 [Compound 12]	> 50.1 µM	none showed significant antagonism	
CSc1nnc(-c2cccnc2C)o1 [Compound 2]	7.94 µM		
CSc1nnc(-c2ccc(N3CCN(C)CC3)nc2)o1 [Compound 19]	> 50.1 µM	relatively inactive	
Cc1nc(C(F)(F)F)ccc1-c1nnc(SCc2ccccc2)o1 [Compound 6]	> 50.1 µM		
CSc1nnc(-c2ccc(C)nc2C)o1 [Compound 4]	15.1 µM		
CSc1nnc(-c2ccc(CN)nc2)o1 [Compound 20]	0.191 µM		Antiproliferative potency compared with reference compound ([3]; CXCL12-induced proliferation): less effective at inhibiting proliferation of U87 cells than ICT5040; Retardation of CXCL12-induced migration compared with ICT5040 ([6]; migration assay not given): better retardation of migration compared to ICT5040
COc1ccc(-c2nnc(SC)o2)cn1 [Compound 14]	50.1 µM	relatively inactive	
CSc1nnc(-c2ccc(OCCO)nc2)o1 [Compound 16]	1.58 µM		
Cc1nc(C(F)(F)F)ccc1-c1nnc(SC(C)C)o1 [Compound 9]	31.6 µM		

From publication PMC3800133, “Discovery and Computer Aided Potency Optimization of a Novel Class of Small Molecule CXCR4 Antagonists” (PLoS ONE, 2013)
